Results published in patent US8138196B2, “Antifungal wallboards and building materials and methods for the production thereof” (Syngenta Crop Protection, Inc., priority 2005, dated 2012).

Tests used:
Assay type in all cases: cell-based
[1] = test system: Aspergillus niger (DSM 63263); experiment: Example 3 liquid culture assay on 24 well plates, solo and 2-way mixtures; conditions: test 006-2005; rate (AZO) 0.05 mg ai/l
Source text: (§1) Alternaria tenuissima (DSM 63360), Penicillium chrysogenum (DSM 895), Stachybotrys chartarum (DSM2144), Aspergillus niger (DSM 63263), Aspergillus versicolor (DSM 1943) and Aureobasidium pullulans (ATCC 15233) were separately cultivated on PDA media to […] sporulation. Spore suspensions were produced for each fungi. Spore concentrations of approx. 100.000 spores/ml were used.
(§2) Test method used: liquid culture assay on 24 well plates.
(§3) For solo (i.e. single) ai testing the formulated fungicide (100 ul) was filled into the 24 well plates and 100 ul distilled water was added. Afterwards 800 ul of 0.3% AE media was added to the plate. The spore suspension of the specific fungi was added to this media in advance containing approx. 100,000 spores/ml. The 24 well plates were sealed and incubated at 24° C.
(§4) Dependent on the growth properties of each organisms, the evaluation was done after 3 to 6 days, when the surface of the check well was covered with mycelium. The evaluation was performed by assessing the growth of the fungi related to the check growth. The results are expressed as % activity relative to the check (values of 0-100% growth). Afterwards the results were converted in % O growth inhibition.
(§5) For synergism testing of the 2-way mixtures 100 ul of each fungicide were filled into 24 well plates and 800 ul of 0.3% AE media containing the spore suspension was added. Different ratios of the 2 fungicide rates were tested at the same time.
(§6) For the mixtures of different fungicides the synergism was calculated based on the Colby equation, which is described below: […]
(§7) The fungicidal action to be expected, We, for a given combination of two fungicides can be calculated as follows (see COLBY, S. R. “Calculating synergistic and antagonistic response of herbicide combinations”. Weeds 15, pages 20-22; 1967): We=X+[Y×(100−X)/100] wherein: • X=% activity in the case of treatment with the compound of formula I at rate x, in comparison with untreated control (=0%). • Y=% activity in the case of treatment with a compound of formula II at rate y, in comparison with untreated control. • We=expected activity (% activity in comparison with untreated control) after treatment with the compound of formula I and a compound of formula II at a rate of x+y kg of active ingredient.
(§8) If the activity actually observed is greater than the expected value We (factor observed activity/expected activity >1.2), there is a synergistic effect.

[2] = test system: Penicillium chrysogenum (DSM 895); experiment: as above; conditions: test 006-2005
Source text: as §1, §2, §3, §4, §5, §6, §7, §8

[3] = test system: Alternaria tenuissima (DSM 63360); experiment: Example 4 liquid culture assay on 24 and 48 well plates, 3 way mixtures; conditions: A. tenuissima
Source text: as §1, with “For test 006-2005: Alternaria” for “Alternaria”, “Cladosporium cladosporoides (DSM62121),” for “Stachybotrys chartarum (DSM2144),”, “fungus.” for “fungi.”, “100,000” for “100.000”
(§9) […] Spore suspensions were produced for each fungus. Spore concentrations of approx. 100,000 spores/ml were used.
(§10) Test method used: liquid culture assay on 24 and 48 well plates respectively.
(§11) For testing of the 3 way mixtures each of the formulated fungicide (100 ul) was filled into the 24 and 48 well plates respectively. Afterwards 700 ul of 0.3% AE media was added to the plate. The spore suspension of the specific fungi was added to this media in advance containing approx. 100,000 spores/ml. For testing the solo compounds the equivalent of distilled water was added instead of the formulated fungicide volume of the mixing partners. The plates were then sealed and incubated at 24° C.
as §4, with “%” for “% O”
(§12) For the mixtures of different fungicides the synergism was calculated based on the Colby equation, which is described above.

[4] = test system: Stachybotrys chartarum (DSM 2144); experiment: as above; conditions: test 015-2005, S. chartarum
Procedure: as §9, §10, §11
as §4, with “%” for “% O”
as §12

Q: `CO/C=C(/C(=O)OC)c1ccccc1Oc1cc(Oc2ccccc2C#N)ncn1` [Azoxystrobin] was tested. Which “inh % (AZO alone)” value [1] did it give?
A: The value was 10%.

Q: And the “inh % (AZO alone)” value ([2]; rate (AZO) 0.05 mg ai/l)?
A: Its value is 10%.

Q: And the “inh % (AZO alone)” value ([2]; rate (AZO) 0.2 mg ai/l)?
A: The value was 0%.

Q: And the “inh % (AZO alone)” value ([2]; rate (AZO) 0.8 mg ai/l)?
A: Its value is 10%.

Q: And the “inh % (AZO alone)” value ([2]; rate (AZO) 1.6 mg ai/l)?
A: The value was 10%.

Q: And the “inh % (AZO alone)” value ([2]; rate (AZO) 3.12 mg ai/l)?
A: Its value is 10%.

Q: And the “inh % (AZO alone)” value ([2]; rate (AZO) 12.5 mg ai/l)?
A: Its value is 10%.

Q: What about the “inh % (AZO alone)” value ([2]; rate (AZO) 50 mg ai/l) of the same molecule?
A: The value was 10%.

Q: And the “inh % (AZO alone)” value ([2]; rate (AZO) 100 mg ai/l)?
A: Its value is 10%.

Q: What about the “inh % (AZO alone)” value ([3]; test 006-2005, AZO 0.05 mg ai/l) of the same molecule?
A: Its value is 10%.

Q: What about the “inh % (AZO alone)” value ([3]; test 006-2005, AZO 0.2 mg ai/l) of the same molecule?
A: Its value is 10%.

Q: And the “inh % (AZO alone)” value ([3]; test 006-2005, AZO 0.8 mg ai/l)?
A: Its value is 10%.

Q: What about the “inh % (AZO alone)” value ([3]; test 006-2005, AZO 1.6 mg ai/l) of the same molecule?
A: Its value is 10%.

Q: What about the “inh % (AZO alone)” value ([3]; test 006-2005, AZO 3.12 mg ai/l) of the same molecule?
A: Its value is 10%.

Q: And the “inh % (AZO alone)” value ([3]; test 006-2005, AZO 12.5 mg ai/l)?
A: Its value is 10%.

Q: And the “inh % (AZO alone)” value ([3]; test 006-2005, AZO 50 mg ai/l)?
A: Its value is 10%.

Q: And the “inh % (AZO alone)” value ([3]; test 006-2005, AZO 100 mg ai/l)?
A: The value was 10%.

Q: And the “inh % (AZO alone)” value ([3]; test 015-2005, AZO 0.05 mg ai/l)?
A: Its value is 10%.

Q: And the “inh % (AZO alone)” value ([3]; test 015-2005, AZO 0.2 mg ai/l)?
A: The value was 10%.

Q: What about the “inh % (AZO alone)” value ([4]; AZO 0.8 mg ai/l) of the same molecule?
A: Its value is 10%.

Q: And the “inh % (AZO alone)” value ([4]; AZO 1.6 mg ai/l)?
A: Its value is 10%.

Q: And the “inh % (AZO alone)” value ([4]; AZO 3.1 mg ai/l)?
A: Its value is 30%.
